Assay results reported in EPA's ToxValDB 9.5 (doi:10.2903/j.efsa.2018.5126).
≈ marks a conversion by molar mass, not a printed value.

What was measured:
Anas platyrhynchos = conditions: acute; oral; unspecified; mortality
Colinus virginianus = conditions: chronic
Rattus norvegicus = conditions: for LD50: acute, mortality
Aphidius rhopalosiphi = test: LR50; higher = less toxic; conditions: acute; mortality
Bibionidae = conditions: chronic/long-term; duration: 28 days
Tagia sp. = conditions: chronic/long-term; duration: 56 days; growth
Apis mellifera = conditions: acute, mortality
Landoltia sp. = conditions: chronic/long-term; duration: 7 days; frond number
Oncorhynchus mykiss = conditions: acute; duration: 96 hours; mortality
Neomysis kadiakensis = conditions: chronic/long-term; duration: 28 days; reproduction
Navicula pelliculosa = conditions: acute; duration: 72 hours; growth
Oryctolagus sp. = conditions: reproduction developmental; body weight

SMILES: N#Cc1c(O)c(Cl)c(Cl)c(C#N)c1Cl [4-Hydroxy-2,5,6-trichloroisophthalonitrile]
- LD50 (Anas platyrhynchos): 158 mg/kg-day
- NOAEL (Colinus virginianus): 10.1 mg/kg-day
- LD50 (Rattus norvegicus): 242 mg/kg-day
- NOAEL (Rattus norvegicus; reproduction developmental, body weight): 1.5 mg/kg-day

SMILES: N#Cc1c(Cl)c(Cl)c(Cl)c(C#N)c1Cl [Chlorothalonil]
- LR50 (Aphidius rhopalosiphi): > 262 g/ha
- LD50 (Anas platyrhynchos): > 2000 mg/kg-day
- NOEC (Bibionidae): 0.04 mg/L
- NOEC (Tagia sp.): 0.75 mg/kg
- LD50 (Apis mellifera; dermal): > 40 µg/piece
- LD50 (Apis mellifera; oral, unspecified): > 40 µg/piece
- LD50 (Rattus norvegicus): > 5000 mg/kg-day
- NOAEL (Rattus norvegicus; chronic, duration: 26 months, organ weight): 1.8 mg/kg-day
- NOAEL (Rattus norvegicus; reproduction developmental, histopathology: nonneoplastic): < 22.6 mg/kg-day
- NOAEL (Rattus norvegicus; subchronic, duration: 90 days, oral, histopathology: nonneoplastic): 1.5 mg/kg-day
- NOEC (Landoltia sp.): 0.187 mg/L
- LC50 (acute, duration: 96 hours, mortality): 0.0107 µg/mL (≈ 0.0402 µM)
- NOEC (chronic): 0.003 mg/L
- LC50 (Oncorhynchus mykiss): 0.017 µg/mL (≈ 0.0639 µM)
- NOEC (Neomysis kadiakensis): 0.0004 mg/L
- NOEC (Navicula pelliculosa): 0.013 mg/L
- NOAEL (Oryctolagus sp.): < 5 mg/kg-day
